Assay results reported in patent publication US8334268B2, “Insecticidal active ingredient combinations (formononetins + insecticides)” (priority 2006, dated 2012).

Test system: Meloidogyne incognita
Test: Meloidogyne incognita test (MELGIN), gall formation on lettuce roots
Assay type: in vivo
Settings: 0.5 mg ai/seed, lettuce seed dressing; nematicidal action by formation of galls; 100% = no galls
Protocol: To produce a suitable preparation of active compound, 1 part by weight of active compound is mixed with the stated amounts of solvent and emulsifier, and the concentrate is diluted with water to the desired concentration.
Lettuce seeds are dressed with the desired amount of formononetin. Vessels are filled with soil infected with mycorrhiza, active compound solution, Meloidogyne incognita egg/larvae suspension and the treated lettuce seeds. The lettuce seeds germinate and the plants develop. On the roots, galls are formed.
After the desired period of time, the nematicidal action is determined in % by the formation of galls. 100% means that no galls have been found; 0% means that the number of galls on the treated plants corresponds to that of the untreated control.

Compound: COc1ccc(-c2coc3cc(O)ccc3c2=O)cc1 [Formononetin of the formula (I), formononetin]
- Effect in % after 21 d: 3.3%
